The record followed here is US20250296938A1, “Compounds that Interact with the Ras Superfamily for the Treatment of Cancers, Inflammatory Diseases, Rasopathies, and Fibrotic Disease” (SHY Therapeutics, LLC, priority 2018, published 2025).

Each structure is given as a SMILES string.

The test system of the first assay is KRas Q61H mutant. The experiment in a line: Ras GTP binding domain inhibition assay (Cy3-GTP/Cy5-GTP competition). Also noted: species or system human. Conditions: 20 μM; with SOS. The method, boiled down: (§1)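 First, His-tagged protein is coated on nickel wells overnight at 4 °C. Next, compound (20 μM single point or serial dilution) is added for 3 h at room temperature, with or without Sos exchange factor in the last hour. Finally, 100 nM labelled GTP binds for 45 min and retained signal is measured.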
Turning to `COC1CCN(c2nc(-c3nccn3C)nc3sc(-c4ccn(C)n4)c(-c4ccccc4)c23)C1` (stereo not shown) [drawing 863], the “KRas Q61H mutant + SOS: % inh.” value is “C (51-75% inhibition)”.
As to `COCC(C)Nc1nc(-c2nccn2C)nc2sc(-c3ccn(C)n3)c(-c3ccccc3)c12` (stereo not shown) [drawing 864], the “KRas Q61H mutant + SOS: % inh.” value is listed as “C (51-75% inhibition)”.
Regarding `COCCCN(C)c1nc(-c2nccn2C)nc2sc(-c3ccn(C)n3)c(-c3ccccc3)c12` [drawing 865], the “KRas Q61H mutant + SOS: % inh.” value is given as “B (26-50% inhibition)”.
On the same count and under the same terms, to `COCCCNc1nc(-c2nccn2C)nc2sc(-c3ccn(C)n3)c(-c3ccccc3)c12` [drawing 866] belongs “B (26-50% inhibition)”; to `COc1cccc(-c2sc3nc(-c4nccn4C)nc(N4CCC(OC)C4)c3c2-c2cscn2)c1` (stereo not shown) [drawing 867], “D (76-100% inhibition)”; to `COc1ccc(-c2c(-c3ccn(C)n3)sc3nc(-c4nccn4C)nc(N4CCC(OC)C4)c23)cc1` (stereo not shown) [drawing 868], “B (26-50% inhibition)”.
Regarding `COCC(C)Nc1nc(-c2nccn2C)nc2sc(-c3ccn(C)n3)c(-c3ccc(OC)cc3)c12` (stereo not shown) [drawing 869], the “KRas Q61H mutant + SOS: % inh.” value is “A (1-25% inhibition)”.
On the same count and under the same terms, to `COCCCNc1nc(-c2nccn2C)nc2sc(-c3ccn(C)n3)c(-c3ccc(OC)cc3)c12` [drawing 870] belongs “A (1-25% inhibition)”.

The same assay, now with this note: 20 μM; without SOS.
Turning to `COC1CCN(c2nc(-c3nccn3C)nc3sc(-c4ccn(C)n4)c(-c4ccccc4)c23)C1` (stereo not shown) [drawing 863], the “KRas Q61H mutant: % inh.” value was “B (26-50% inhibition)”.
On the same count and under the same terms, to `COCC(C)Nc1nc(-c2nccn2C)nc2sc(-c3ccn(C)n3)c(-c3ccccc3)c12` (stereo not shown) [drawing 864] belongs 0 (0% inhibition).
`COCCCN(C)c1nc(-c2nccn2C)nc2sc(-c3ccn(C)n3)c(-c3ccccc3)c12` [drawing 865]: the “KRas Q61H mutant: % inh.” value is reported as “A (1-25% inhibition)”.
The same measure, in the same setting: to `COCCCNc1nc(-c2nccn2C)nc2sc(-c3ccn(C)n3)c(-c3ccccc3)c12` [drawing 866] belongs “B (26-50% inhibition)”.
For `COc1cccc(-c2sc3nc(-c4nccn4C)nc(N4CCC(OC)C4)c3c2-c2cscn2)c1` (stereo not shown) [drawing 867], the “KRas Q61H mutant: % inh.” value is listed as “A (1-25% inhibition)”.
Turning to `COc1ccc(-c2c(-c3ccn(C)n3)sc3nc(-c4nccn4C)nc(N4CCC(OC)C4)c23)cc1` (stereo not shown) [drawing 868], the “KRas Q61H mutant: % inh.” value is listed as “A (1-25% inhibition)”.
`COCC(C)Nc1nc(-c2nccn2C)nc2sc(-c3ccn(C)n3)c(-c3ccc(OC)cc3)c12` (stereo not shown) [drawing 869]: the “KRas Q61H mutant: % inh.” value is “A (1-25% inhibition)”.
In the case of `COCCCNc1nc(-c2nccn2C)nc2sc(-c3ccn(C)n3)c(-c3ccc(OC)cc3)c12` [drawing 870], the “KRas Q61H mutant: % inh.” value was “A (1-25% inhibition)”.

Another assay concerns KRas G12C mutant. The description is as above. Also noted: species or system human. Conditions: 20 μM; with SOS. Summed up: as §1
With `COC1CCN(c2nc(-c3nccn3C)nc3sc(-c4ccn(C)n4)c(-c4ccccc4)c23)C1` (stereo not shown) [drawing 863], the “KRas G12C mutant + SOS: % inh.” value was “B (26-50% inhibition)”.
The same measure, in the same setting: to `COCC(C)Nc1nc(-c2nccn2C)nc2sc(-c3ccn(C)n3)c(-c3ccccc3)c12` (stereo not shown) [drawing 864] belongs “C (51-75% inhibition)”.
In the case of `COCCCN(C)c1nc(-c2nccn2C)nc2sc(-c3ccn(C)n3)c(-c3ccccc3)c12` [drawing 865], the “KRas G12C mutant + SOS: % inh.” value was “B (26-50% inhibition)”.
As to `COCCCNc1nc(-c2nccn2C)nc2sc(-c3ccn(C)n3)c(-c3ccccc3)c12` [drawing 866], the “KRas G12C mutant + SOS: % inh.” value is on record as “B (26-50% inhibition)”.
Take `COc1cccc(-c2sc3nc(-c4nccn4C)nc(N4CCC(OC)C4)c3c2-c2cscn2)c1` (stereo not shown) [drawing 867]: the “KRas G12C mutant + SOS: % inh.” value was “D (76-100% inhibition)”.
On the same count and under the same terms, to `COc1ccc(-c2c(-c3ccn(C)n3)sc3nc(-c4nccn4C)nc(N4CCC(OC)C4)c23)cc1` (stereo not shown) [drawing 868] belongs “A (1-25% inhibition)”.
On to `COCC(C)Nc1nc(-c2nccn2C)nc2sc(-c3ccn(C)n3)c(-c3ccc(OC)cc3)c12` (stereo not shown) [drawing 869], for which the “KRas G12C mutant + SOS: % inh.” value was “A (1-25% inhibition)”.
Turning to `COCCCNc1nc(-c2nccn2C)nc2sc(-c3ccn(C)n3)c(-c3ccc(OC)cc3)c12` [drawing 870], the “KRas G12C mutant + SOS: % inh.” value is recorded as “A (1-25% inhibition)”.

The same assay, now with this note: 20 μM; without SOS.
As to `COC1CCN(c2nc(-c3nccn3C)nc3sc(-c4ccn(C)n4)c(-c4ccccc4)c23)C1` (stereo not shown) [drawing 863], the “KRas G12C mutant: % inh.” value is “A (1-25% inhibition)”.
For `COCC(C)Nc1nc(-c2nccn2C)nc2sc(-c3ccn(C)n3)c(-c3ccccc3)c12` (stereo not shown) [drawing 864], the “KRas G12C mutant: % inh.” value is given as 0 (0% inhibition).
On the same count and under the same terms, under `COCCCN(C)c1nc(-c2nccn2C)nc2sc(-c3ccn(C)n3)c(-c3ccccc3)c12` [drawing 865] stands “A (1-25% inhibition)”; under `COCCCNc1nc(-c2nccn2C)nc2sc(-c3ccn(C)n3)c(-c3ccccc3)c12` [drawing 866], “A (1-25% inhibition)”; under `COc1cccc(-c2sc3nc(-c4nccn4C)nc(N4CCC(OC)C4)c3c2-c2cscn2)c1` (stereo not shown) [drawing 867], 0 (0% inhibition).
In the case of `COc1ccc(-c2c(-c3ccn(C)n3)sc3nc(-c4nccn4C)nc(N4CCC(OC)C4)c23)cc1` (stereo not shown) [drawing 868], the “KRas G12C mutant: % inh.” value was 0 (0% inhibition).
The same measure, in the same setting: to `COCC(C)Nc1nc(-c2nccn2C)nc2sc(-c3ccn(C)n3)c(-c3ccc(OC)cc3)c12` (stereo not shown) [drawing 869] belongs 0 (0% inhibition); to `COCCCNc1nc(-c2nccn2C)nc2sc(-c3ccn(C)n3)c(-c3ccc(OC)cc3)c12` [drawing 870], 0 (0% inhibition).

The next assay has as its system KRas wild type. The assay is described as above. Also on record: species or system human. Conditions: 20 μM; with SOS. Summed up: as §1
Regarding `COC1CCN(c2nc(-c3nccn3C)nc3sc(-c4ccn(C)n4)c(-c4ccccc4)c23)C1` (stereo not shown) [drawing 863], the “KRas wild type + SOS: % inh.” value is on record as “B (26-50% inhibition)”.
As for `COCC(C)Nc1nc(-c2nccn2C)nc2sc(-c3ccn(C)n3)c(-c3ccccc3)c12` (stereo not shown) [drawing 864], the “KRas wild type + SOS: % inh.” value is reported as “C (51-75% inhibition)”.
Still for that read-out and setting: under `COCCCN(C)c1nc(-c2nccn2C)nc2sc(-c3ccn(C)n3)c(-c3ccccc3)c12` [drawing 865] stands “B (26-50% inhibition)”; under `COCCCNc1nc(-c2nccn2C)nc2sc(-c3ccn(C)n3)c(-c3ccccc3)c12` [drawing 866], “C (51-75% inhibition)”.
Consider `COc1cccc(-c2sc3nc(-c4nccn4C)nc(N4CCC(OC)C4)c3c2-c2cscn2)c1` (stereo not shown) [drawing 867], for which the “KRas wild type + SOS: % inh.” value is recorded as “D (76-100% inhibition)”.
Consider `COc1ccc(-c2c(-c3ccn(C)n3)sc3nc(-c4nccn4C)nc(N4CCC(OC)C4)c23)cc1` (stereo not shown) [drawing 868], for which the “KRas wild type + SOS: % inh.” value is reported as “A (1-25% inhibition)”.
Still for that read-out and setting: under `COCC(C)Nc1nc(-c2nccn2C)nc2sc(-c3ccn(C)n3)c(-c3ccc(OC)cc3)c12` (stereo not shown) [drawing 869] stands “A (1-25% inhibition)”; under `COCCCNc1nc(-c2nccn2C)nc2sc(-c3ccn(C)n3)c(-c3ccc(OC)cc3)c12` [drawing 870], 0 (0% inhibition).

The same assay, now with this note: 20 μM; without SOS.
In the case of `COC1CCN(c2nc(-c3nccn3C)nc3sc(-c4ccn(C)n4)c(-c4ccccc4)c23)C1` (stereo not shown) [drawing 863], the “KRas wild type: % inh.” value is recorded as “A (1-25% inhibition)”.
As for `COCC(C)Nc1nc(-c2nccn2C)nc2sc(-c3ccn(C)n3)c(-c3ccccc3)c12` (stereo not shown) [drawing 864], the “KRas wild type: % inh.” value is reported as 0 (0% inhibition).
The same measure, in the same setting: under `COCCCN(C)c1nc(-c2nccn2C)nc2sc(-c3ccn(C)n3)c(-c3ccccc3)c12` [drawing 865] stands “A (1-25% inhibition)”; under `COCCCNc1nc(-c2nccn2C)nc2sc(-c3ccn(C)n3)c(-c3ccccc3)c12` [drawing 866], “C (51-75% inhibition)”; under `COc1cccc(-c2sc3nc(-c4nccn4C)nc(N4CCC(OC)C4)c3c2-c2cscn2)c1` (stereo not shown) [drawing 867], “A (1-25% inhibition)”.
In the case of `COc1ccc(-c2c(-c3ccn(C)n3)sc3nc(-c4nccn4C)nc(N4CCC(OC)C4)c23)cc1` (stereo not shown) [drawing 868], the “KRas wild type: % inh.” value is given as 0 (0% inhibition).
Consider `COCC(C)Nc1nc(-c2nccn2C)nc2sc(-c3ccn(C)n3)c(-c3ccc(OC)cc3)c12` (stereo not shown) [drawing 869], for which the “KRas wild type: % inh.” value is “A (1-25% inhibition)”.
With `COCCCNc1nc(-c2nccn2C)nc2sc(-c3ccn(C)n3)c(-c3ccc(OC)cc3)c12` [drawing 870], the “KRas wild type: % inh.” value was “A (1-25% inhibition)”.

Another assay addresses T1, KRas G12D mutant (Homo sapiens, UniProt P01116, G12D).
T1 construct: fused on or other part: His tag, used for capture on nickel-coated plates
Described as above. To be noted: 20 μM; with SOS; read-out: KRas G-12D mutant + SOS: % inh. Summed up: as §1
Take `COC1CCN(c2nc(-c3nccn3C)nc3sc(-c4ccn(C)n4)c(-c4ccccc4)c23)C1` (stereo not shown) [drawing 863]: the inhibition at 20 µM lay within 1 to 25%.
Take `COCC(C)Nc1nc(-c2nccn2C)nc2sc(-c3ccn(C)n3)c(-c3ccccc3)c12` (stereo not shown) [drawing 864]: the inhibition at 20 µM was in the range of 26 to 50%.
Still for that read-out and setting: to `COCCCN(C)c1nc(-c2nccn2C)nc2sc(-c3ccn(C)n3)c(-c3ccccc3)c12` [drawing 865] belongs 26 to 50%; to `COCCCNc1nc(-c2nccn2C)nc2sc(-c3ccn(C)n3)c(-c3ccccc3)c12` [drawing 866], 26 to 50%; to `COc1cccc(-c2sc3nc(-c4nccn4C)nc(N4CCC(OC)C4)c3c2-c2cscn2)c1` (stereo not shown) [drawing 867], 51 to 75%.
Still for that read-out and setting: to `COc1ccc(-c2c(-c3ccn(C)n3)sc3nc(-c4nccn4C)nc(N4CCC(OC)C4)c23)cc1` (stereo not shown) [drawing 868] belongs 1 to 25%; to `COCC(C)Nc1nc(-c2nccn2C)nc2sc(-c3ccn(C)n3)c(-c3ccc(OC)cc3)c12` (stereo not shown) [drawing 869], 1 to 25%; to `COCCCNc1nc(-c2nccn2C)nc2sc(-c3ccn(C)n3)c(-c3ccc(OC)cc3)c12` [drawing 870], 1 to 25%.

The assay is the same for the next values; noted with them: 20 μM; without SOS; read-out: KRas G12D mutant: % inh.
Regarding `COC1CCN(c2nc(-c3nccn3C)nc3sc(-c4ccn(C)n4)c(-c4ccccc4)c23)C1` (stereo not shown) [drawing 863], the inhibition at 20 µM was in the range of 1 to 25%.
Same read-out and setting: to `COCC(C)Nc1nc(-c2nccn2C)nc2sc(-c3ccn(C)n3)c(-c3ccccc3)c12` (stereo not shown) [drawing 864] belongs 1 to 25%.
Turning to `COCCCN(C)c1nc(-c2nccn2C)nc2sc(-c3ccn(C)n3)c(-c3ccccc3)c12` [drawing 865], the inhibition at 20 µM lay within 51 to 75%.
On to `COCCCNc1nc(-c2nccn2C)nc2sc(-c3ccn(C)n3)c(-c3ccccc3)c12` [drawing 866], for which the inhibition at 20 µM was in the range of 1 to 25%.
Same read-out and setting: to `COc1cccc(-c2sc3nc(-c4nccn4C)nc(N4CCC(OC)C4)c3c2-c2cscn2)c1` (stereo not shown) [drawing 867] belongs 1 to 25%.
The same measure, in the same setting: to `COc1ccc(-c2c(-c3ccn(C)n3)sc3nc(-c4nccn4C)nc(N4CCC(OC)C4)c23)cc1` (stereo not shown) [drawing 868] belongs 0%.
`COCC(C)Nc1nc(-c2nccn2C)nc2sc(-c3ccn(C)n3)c(-c3ccc(OC)cc3)c12` (stereo not shown) [drawing 869]: the inhibition at 20 µM is 0%.
Same read-out and setting: to `COCCCNc1nc(-c2nccn2C)nc2sc(-c3ccn(C)n3)c(-c3ccc(OC)cc3)c12` [drawing 870] belongs 0%.
